Consider 2 molecules from patent US20230313217A1, “CHLOROPLAST TARGETING PEPTIDES AND CONJUGATES AND COMPOSITIONS THEREOF” (The Regents of the University of California, priority 2021, published 2023).

Data set [1] relates to chloroplasts in leaf mesophyll cells. In words: Chemical cargo (FDA) delivery to chloroplasts, confocal colocalization. It counts as in vivo, Arabidopsis thaliana. The conditions noted are these: FDA alone. The source says:
Chemical Cargo and Plasmid DNA and Delivery to Chloroplasts Mediated by Targeted Nanomaterials. To assess the delivery of chemical cargoes to chloroplasts mediated by TP-β-CD nanocarriers, we loaded β-cyclodextrins with the fluorescent dye […] (FDA) (FIG. 4A). We imaged the localization of FDA within leaf mesophyll tissues by confocal microscopy and quantified the localization of this fluorescence dye with chloroplasts autofluorescence (FIG. 4B,C). Plant leaves treated with TP-β-CD-FDA or TP-β-CD (Table 1) were analyzed for the fluorescence emission crosstalk with confocal microscopy under laser excitation with a 488 nm laser (FIG. 13A). […] When added together with CDs or β-CDs, the FDA was observed both in the intracellular and extracellular space. […] In contrast, when FDA was delivered by TP-β-CDs, most of the FDA fluorescence signal was detected inside leaf mesophyll cells and highly colocalized with chloroplasts (70.0±9.5%) (FIG. 4B). […] Although targeted TP-β-CDs improved the delivery of FDA to chloroplasts in leaf mesophyll cells, the FDA fluorescence signal was localized throughout the entire leaf mesophyll cells. […] Colocalization rates of FDA fluorescence with chloroplasts were determined using Mander's coefficient analysis (COLOC2, ImageJ). […]
Confocal Fluorescence Microscopy. […]

Data set [2] can be described thus: ζ potential of carbon nanostructures (Zetasizer). It counts as physicochemical. Conditions: neutral charge. On the procedure: The resulting PEI-SWCNT suspension was characterized by measuring the absorbance spectra on a UV-vis absorbance spectrophotometer (UV-2600, Shimadzu). The quality of the SWCNT suspension was determined by analyzing absorbance peaks at 632 nm. This measurement was performed with triplicates. The concentration of the PEI-SWCNT was determined spectrophotometrically using the absorption value at 632 nm and utilizing the equation (absorbance at 632 nm/extinction coefficient of 0.036)=mg L^−1. The final concentration obtained after purification ranged from 18 to 30 mg/L. The nanoparticle ζ potential was measured using a Zetasizer (Nano ZS, Malvern Instruments) in samples suspended in 10 mM TES buffer pH 7.0, with 0.1 mM NaCl. The hydrodynamic size was measured using Zetasizer (Nano ZS, Malvern Instruments) in samples suspended in a 10 mM TES buffer at pH 7.
Characterization of Nanomaterials. All nanomaterials were characterized by absorbance UV-vis spectroscopy (UV-2600 Shimadzu), hydrodynamic size (Nano S), and ζ potential (Nano ZS). The nanomaterial ζ potential and hydrodynamic diameter were measured in a 10 mM TES buffer (pH 7.0). The ζ potential measurements were performed in 0.1 mM NaCl to improve conductivity and analyzed by the Hückel approximation model.^111 CD fluorescence emission was collected using a fluorescence spectrometer (Horiba PTI QM-400). The stepwise synthesis of TP-β-CDs was analyzed using FTIR (Thermo Nicolet 6700 FTIR).

With `O=C(O)c1ccc2c(c1)C1(OC2=O)c2ccc(O)cc2Oc2cc(O)ccc21` [FDA, 6-carboxyfluorescein], the “localization of FDA in leaf mesophyll tissue” value in data set [1] is “localized near the plasma membrane”.

As for “MASSMLSSATMVGGC [chloroplast targeting peptide for CD]”, in data set [2], the “charge of chloroplast targeting peptide” value is −0.1 mV.
